Reference: ChEMBL document CHEMBL1201862, “PubChem BioAssay data set” (2004)
Activity calls are given as the source filed them.

Tests used:
Phosphomannomutase 2 = Phosphomannomutase 2 (Homo sapiens, UniProt O15305); assay: Counter screen SAR assay for PMM2 inhibitors via a fluorescence intensity assay. [Related pubchem assays (depositor defined):AID1545, AID1574]
[1] = target: T1, Mannose-6-phosphate isomerase (Homo sapiens, UniProt P34949); assay: PMI enzyme inhibitors, confirmation, biochemical, fluorescence intensity (AID 1535)
T1 sequence (P34949 whole entry): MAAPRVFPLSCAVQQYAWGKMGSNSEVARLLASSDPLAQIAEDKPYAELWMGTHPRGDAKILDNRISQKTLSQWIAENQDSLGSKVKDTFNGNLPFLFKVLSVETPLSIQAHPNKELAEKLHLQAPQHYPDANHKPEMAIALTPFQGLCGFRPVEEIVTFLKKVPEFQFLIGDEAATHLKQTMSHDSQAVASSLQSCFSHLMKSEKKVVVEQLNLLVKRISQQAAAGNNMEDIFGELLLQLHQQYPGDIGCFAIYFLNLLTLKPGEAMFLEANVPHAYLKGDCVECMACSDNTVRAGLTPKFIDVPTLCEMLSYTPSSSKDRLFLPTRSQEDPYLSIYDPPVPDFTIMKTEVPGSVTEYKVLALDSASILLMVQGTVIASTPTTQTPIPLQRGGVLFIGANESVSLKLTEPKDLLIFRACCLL

Chain of Phosphomannomutase 2 (O15305 whole entry): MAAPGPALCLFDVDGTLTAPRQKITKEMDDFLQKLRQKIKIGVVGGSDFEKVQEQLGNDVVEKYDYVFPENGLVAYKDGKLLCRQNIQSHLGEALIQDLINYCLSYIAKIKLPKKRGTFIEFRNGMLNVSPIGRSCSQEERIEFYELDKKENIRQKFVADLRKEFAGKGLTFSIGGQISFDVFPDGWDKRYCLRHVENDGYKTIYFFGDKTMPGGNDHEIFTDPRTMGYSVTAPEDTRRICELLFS

IC50 (Phosphomannomutase 2) | IC50 [1] | SMILES
> 100 µM (inactive) | 9.77 µM (active) | Clc1ccc(Nc2ccccc2/N=c2\ssnc2Cl)cc1
> 100 µM (inactive) | 11.6 µM (active) | Fc1ccc(/N=c2\ssnc2Cl)cc1
